Here are results for 64 compounds from US20120190669A1, “OXINDOLE COMPOUNDS” (CYLENE PHARMACEUTICALS, INC., priority 2008, published 2012).

Chain of recombinant PIM-1 (P11309 whole entry): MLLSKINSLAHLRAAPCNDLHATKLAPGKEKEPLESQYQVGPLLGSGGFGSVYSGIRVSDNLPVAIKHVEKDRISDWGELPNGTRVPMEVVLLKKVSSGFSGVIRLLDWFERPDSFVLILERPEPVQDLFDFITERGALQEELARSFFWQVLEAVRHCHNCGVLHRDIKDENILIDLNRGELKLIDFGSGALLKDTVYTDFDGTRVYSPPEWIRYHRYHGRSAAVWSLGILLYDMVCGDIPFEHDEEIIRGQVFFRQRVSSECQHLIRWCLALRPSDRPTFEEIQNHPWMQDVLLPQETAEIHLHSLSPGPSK

One test addresses recombinant PIM-1 (Homo sapiens, UniProt P11309). The test can be described thus: PIM-1 kinase assay (radiometric, 15 uM ATP, DMSO 4%). In kind it is biochemical.
Details: not given
On the procedure:
The following procedure was used to assay the PIM-1 kinase activity of compounds of the invention. Other methods for assaying PIM-1 and other PIM kinases, as well as methods to assay for activity against the various kinases in FIG. 1, are known in the art.
(specific activity approx. 500 cpm/pmol), DMSO 4% and test inhibitor compound at the required concentration. The reaction was initiated by the addition of the Magnesium ATP mixture. After 40 min incubation at 23° C., the reactions were quenched by the addition of 100 ul 0.75% Phosphoric acid, and the labeled peptide collected by filtration through a phosphocellulose filter plate. The plate was washed 4 times with 0.075% phosphoric acid (100 ul per well) and then, after the addition of scintillation fluid (20 ul per well), the counts were measured by a scintillation counter.
One may read the inhibition as the change of the read-out against control, counted positive when it falls. For the compound `CCC(=O)Nc1cc(C(=O)NCCN2CCCC2)ccc1-c1ccc(/C=C2/C(=O)Nc3ccccc32)o1` [Compound 168], the inhibition at 2 µM was -14.9%.

The same test, now with this note: Table 1; % inhibition at the high dose (2 micromolar) in a single screening assay; 15 μM ATP.
In the case of `O=C1Nc2ccccc2/C1=C\c1ccc(-c2ccc(C(=O)NCCN3CCCC3)nc2)o1` [Compound 128], the inhibition at 2 µM stood at 27.2%.
Regarding `CN1CCCC(NC(=O)c2ccc(-c3ccc(/C=C4/C(=O)Nc5ccccc54)o3)cn2)C1` (stereo not shown) [Compound 129], the inhibition at 2 µM came to 1.44%.
`CCN1CCCC1CNC(=O)c1ccc(-c2ccc(/C=C3/C(=O)Nc4ccccc43)o2)cn1` (stereo not shown) [Compound 130]: the inhibition at 2 µM is 24.3%.
As for `CN1CCC(N(C)C(=O)c2ccc(-c3ccc(/C=C4/C(=O)Nc5ccccc54)o3)cn2)C1` (stereo not shown) [Compound 131], the inhibition at 2 µM was determined as 5.08%.
Still for that read-out and setting: the value for `CN1CCCCC1CNC(=O)c1ccc(-c2ccc(/C=C3/C(=O)Nc4ccccc43)o2)cn1` (stereo not shown) [Compound 133] was 7.61%.
Still for that read-out and setting: then `CCN(CC)CCNC(=O)c1ccc(-c2ccc(/C=C3/C(=O)Nc4ccccc43)o2)cn1` [Compound 134], with 32.4%; and `O=C1Nc2ccccc2/C1=C\c1ccc(-c2ccc(C(=O)NCc3ccncc3)nc2)o1` [Compound 135], with 43.6%.
For `CN1CCN(C(=O)c2ccc(-c3ccc(/C=C4/C(=O)Nc5ccccc54)o3)cn2)CC1` [Compound 136], the inhibition at 2 µM was 15.2%.
The same measure, in the same setting: the value for `CN1CCCN(C(=O)c2ccc(-c3ccc(/C=C4/C(=O)Nc5ccccc54)o3)cn2)CC1` [Compound 137] was 20.6%.
On the same count and under the same terms, the value for `CN(C)C1CCN(C(=O)c2ccc(-c3ccc(/C=C4/C(=O)Nc5ccccc54)o3)cn2)CC1` [Compound 138] was 30.5%.
Same read-out and setting: then `Cc1cc(NCCN2CCCC2)c2cccc(-c3ccc(/C=C4/C(=O)Nc5ccc(Cl)cc54)o3)c2n1` [Compound 139], with -23.4%; and `O=C1Nc2ccc(Cl)cc2/C1=C\c1ccc(-c2cccc(C(=O)NCc3ccnc(N4CCCC4)c3)c2)o1` [Compound 141], with 26.3%; and `COc1cc(CNC(=O)c2cccc(-c3ccc(/C=C4/C(=O)Nc5ccc(Cl)cc54)o3)c2)ccn1` [Compound 142], with 32.7%.
Turning to `COC(=O)c1ccc(-c2ccc(/C=C3/C(=O)Nc4ccccc43)o2)c(N)c1` [Compound 143], the inhibition at 2 µM is 30.6%.
Regarding `CCOC(=O)c1cncc(-c2ccc(/C=C3/C(=O)Nc4ccc(Cl)cc43)o2)c1` [Compound 145], the inhibition at 2 µM came out at 34.5%.
Still for that read-out and setting: then `O=C1Nc2ccccc2/C1=C\c1ccc(-c2ccc(C(=O)NCCN3CCCC3)c(F)c2)o1` [Compound 159], with 11.3%; and `CN1CCCN(C(=O)c2ccc(-c3ccc(/C=C4/C(=O)Nc5ccccc54)o3)cc2F)CC1` [Compound 160], with -17.1%; and `O=C1Nc2ccccc2/C1=C\c1ccc(-c2ccc(C(=O)NCCCn3ccnc3)c(F)c2)o1` [Compound 161], with 28.4%.
On the same count and under the same terms, the value for `NCc1cccc(-c2ccc(/C=C3/C(=O)Nc4ccccc43)o2)c1` [Compound 165] was 19.4%; that for `O=C1Nc2ccccc2/C1=C\c1ccc(-c2cccc(C(=O)Nc3nccs3)c2)o1` [Compound 167] was -3.02%; that for `CCCC(=O)Nc1cc(C(=O)NCCN2CCCC2)ccc1-c1ccc(/C=C2/C(=O)Nc3ccccc32)o1` [Compound 169] was -29.9%.
The same measure, in the same setting: then `O=C1Nc2ccccc2/C1=C\c1ccc(-c2ccc(C(=O)O)c(O)c2)o1` [Compound 170], with 43%.
Take `CN(CCc1ccccn1)C(=O)c1cccc(-c2ccc(/C=C3/C(=O)Nc4ccc(Cl)cc43)o2)c1` [Compound 171]: the inhibition at 2 µM was -0.11%.
As for `O=C1Nc2ccc(Cl)cc2/C1=C\c1ccc(-c2cccc(C(=O)NCCc3ccccn3)c2)o1` [Compound 172], the inhibition at 2 µM came out at 29.3%.
With `CCN(CC)C(=O)c1cccc(-c2ccc(/C=C3/C(=O)Nc4ccc(Cl)cc43)o2)c1` [Compound 173], the inhibition at 2 µM amounted to 29.2%.
On to `CN(C)C(=O)c1cccc(-c2ccc(/C=C3/C(=O)Nc4ccc(Cl)cc43)o2)c1` [Compound 175], for which the inhibition at 2 µM came to 21.2%.
Still for that read-out and setting: then `CON(C)C(=O)c1cccc(-c2ccc(/C=C3/C(=O)Nc4ccc(Cl)cc43)o2)c1` [Compound 176], with -59.6%.
Still for that read-out and setting: the value for `CN(C)c1ccc(CNC(=O)c2cccc(-c3ccc(/C=C4/C(=O)Nc5ccc(Cl)cc54)o3)c2)cc1` [Compound 177] was 10.9%.
In the case of `O=C1Nc2ccc(Cl)cc2/C1=C\c1ccc(-c2cccc(C(=O)N3CCCC(O)C3)c2)o1` (stereo not shown) [Compound 178], the inhibition at 2 µM is -19.4%.
Regarding `O=C1Nc2ccc(Cl)cc2/C1=C\c1ccc(-c2cccc(C(=O)NCCc3ccc(O)cc3)c2)o1` [Compound 179], the inhibition at 2 µM stood at 18.4%.
The same measure, in the same setting: then `CC(C)(C)OC(=O)Nc1cccc(-c2ccc(/C=C3/C(=O)Nc4ccccc43)o2)c1` [Compound 181], with 14.5%.

The same test, now with this note: Table 1; given for compounds with IC50 at or below 2 micromolar; 15 uM ATP; read-out: PIM-1 IC50.
What is called IC50 is the concentration that inhibits the measured activity by half. On to `Cn1cncc1CNC(=O)c1ccc(-c2ccc(/C=C3/C(=O)Nc4ccccc43)o2)cn1` [Compound 132], for which the half-maximal inhibitory concentration (IC50) was less than 1000 nM.
As for `Cc1cnc(CNC(=O)c2ccc(-c3ccc(/C=C4/C(=O)Nc5ccc(Cl)cc54)o3)cc2)cn1` [Compound 140], the IC50 is less than 1000 nM.
`Nc1cc(C(=O)NCCN2CCCC2)ccc1-c1ccc(/C=C2/C(=O)Nc3ccccc32)o1` [Compound 144]: the IC50 was less than 1000 nM.
Same read-out and setting: the value for `O=C1Nc2ccc(Cl)cc2/C1=C\c1ccc(-c2cncc(C(=O)O)c2)o1` [Compound 146] was less than 2000 nM.
On to `O=C1Nc2ccc(Cl)cc2/C1=C\c1ccc(-c2cncc(C(=O)NCCN3CCCC3)c2)o1` [Compound 147], for which the IC50 was less than 1000 nM.
For the compound `CN1CCCC(NC(=O)c2cncc(-c3ccc(/C=C4/C(=O)Nc5ccc(Cl)cc54)o3)c2)C1` (stereo not shown) [Compound 149], the IC50 is less than 1000 nM.
Turning to `CCN1CCCC1CNC(=O)c1cncc(-c2ccc(/C=C3/C(=O)Nc4ccc(Cl)cc43)o2)c1` (stereo not shown) [Compound 150], the IC50 is less than 1000 nM.
Take `CCN1CCCC1CNC(=O)c1cncc(-c2ccc(/C=C3/C(=O)Nc4ccc(Cl)cc43)o2)c1` (stereo not shown) [Compound 151]: the IC50 was less than 1000 nM.
The same measure, in the same setting: the value for `CCN(CC)CCNC(=O)c1cncc(-c2ccc(/C=C3/C(=O)Nc4ccc(Cl)cc43)o2)c1` [Compound 152] was less than 1000 nM.
Take `CN1CCCN(C(=O)c2cncc(-c3ccc(/C=C4/C(=O)Nc5ccc(Cl)cc54)o3)c2)CC1` [Compound 154]: the concentration for half-maximal inhibition (IC50) is less than 1000 nM.
On the same count and under the same terms, then `O=C1Nc2ccccc2/C1=C\c1ccc(-c2ccc3ccc(NCCN4CCCC4)nc3c2)o1` [Compound 155], with less than 1000 nM.
For `C/C(=C1\C(=O)Nc2ccccc21)c1ccc(-c2cccc(C(=O)NCCN3CCCC3)c2)o1` [Compound 156], the concentration for half-maximal inhibition (IC50) is less than 2000 nM.
Regarding `Cc1cc(-c2cccc(C(=O)NCCN3CCCC3)c2)oc1/C=C1/C(=O)Nc2ccccc21` [Compound 157], the IC50 was less than 2000 nM.
For the compound `Cc1cc(-c2cccc(C(=O)NCc3cncn3C)c2)oc1/C=C1/C(=O)Nc2ccccc21` [Compound 158], the half-maximal inhibitory concentration (IC50) was less than 2000 nM.
As to `O=C1Nc2ccccc2/C1=C\c1ccc(-c2ccccc2O)o1` [Compound 162], the IC50 was less than 2000 nM.
In the case of `O=C1Nc2ccccc2/C1=C\c1ccc(-c2cccc(CO)c2)o1` [Compound 163], the IC50 was less than 2000 nM.
The same measure, in the same setting: then `O=C1Nc2ccccc2/C1=C\c1ccc(-c2ccc(CO)cc2)o1` [Compound 164], with less than 2000 nM.
Same read-out and setting: the value for `NC(=O)c1cccc(-c2ccc(/C=C3/C(=O)Nc4ccccc43)o2)c1` [Compound 166] was less than 1000 nM; that for `O=C1Nc2ccc(Cl)cc2/C1=C\c1ccc(-c2cccc(C(=O)NC3=NCCS3)c2)o1` [Compound 174] was less than 1000 nM.
The same measure, in the same setting: the value for `O=C1Nc2ccc(Cl)cc2/C1=C\c1ccc(-c2cccc(C(=O)NCC(O)c3ccccc3)c2)o1` (stereo not shown) [Compound 180] was less than 1000 nM; that for `O=C1Nc2ccccc2/C1=C\c1ccc(-c2ccc(C(=O)NCCN3CCCC3)c(O)c2)o1` [Compound 182] was less than 2000 nM; that for `Nc1cccc(-c2ccc(/C=C3/C(=O)Nc4ccccc43)o2)c1` [Compound 183] was less than 2000 nM.
For the compound `O=C(CCN1CCCC1)Nc1cccc(-c2ccc(/C=C3/C(=O)Nc4ccccc43)o2)c1` [Compound 184], the half-inhibitory concentration (IC50) is less than 1000 nM.
On to `CCN(CC)CCC(=O)Nc1cccc(-c2ccc(/C=C3/C(=O)Nc4ccccc43)o2)c1` [Compound 185], for which the half-maximal inhibitory concentration (IC50) was less than 1000 nM.
On to `O=C(CN1CCCC1)Nc1cccc(-c2ccc(/C=C3/C(=O)Nc4ccccc43)o2)c1` [Compound 186], for which the half-maximal inhibitory concentration (IC50) is less than 1000 nM.
Turning to `CCN(CC)CC(=O)Nc1cccc(-c2ccc(/C=C3/C(=O)Nc4ccccc43)o2)c1` [Compound 187], the 50% inhibitory concentration (IC50) is less than 1000 nM.
On the same count and under the same terms, then `O=C1Nc2ccc(Cl)cc2/C1=C\c1ccc(-c2cccc(C(=O)NCC(O)c3ccccn3)c2)o1` (stereo not shown) [Compound 188], with less than 1000 nM; and `O=C1Nc2ccc(Cl)cc2/C1=C\c1ccc(-c2cccc(C(=O)NCC(O)c3cccnc3)c2)o1` (stereo not shown) [Compound 189], with less than 1000 nM; and `O=C1Nc2ccc(Cl)cc2/C1=C\c1ccc(-c2cccc(C(=O)NCC(O)c3ccncc3)c2)o1` (stereo not shown) [Compound 190], with less than 1000 nM.
The same measure, in the same setting: the value for `O=C1Nc2ccc(Cl)cc2/C1=C\c1ccc(-c2cccc(C(=O)NCCN(CCO)CCO)c2)o1` [Compound 193] was less than 1000 nM; that for `C/C(=C1\C(=O)Nc2ccc(Cl)cc21)c1ccc(-c2ccc(C(=O)N3CCCN(C)CC3)cc2)o1` [Compound 195] was less than 1000 nM; that for `CN1CCCN(C(=O)c2ccc(-c3ccc(/C=C4/C(=O)Nc5ccc(Cl)cc54)o3)cc2)CC1` [Compound 196] was less than 1000 nM.
